Experimental data published in ChEMBL document CHEMBL4270560, “Novel curcumin analogue hybrids: Synthesis and anticancer activity” (Eur J Med Chem, 2018).
pIC50: −log10 of the molar value. The source made the active and inactive calls. No cut-off for these calls is given here.

Key:
SGC-7901 [1] = experiment: Cell cycle arrest in human SGC7901 cells assessed as accumulation at S phase at 600 nM after 48 hrs by propidium iodide staining based flow cytometric analysis (reference value: 33.30%); assay type: functional
SGC-7901 [2] = experiment: Induction of apoptosis in human SGC7901 cells assessed as early apoptotic cells at 1200 nM after 48 hrs by Annexin V-FITC/propidium iodide staining based flow cytometric analysis (reference value: 0.851 to 2.30%); assay type: functional
SGC-7901 [3] = experiment: Induction of apoptosis in human SGC7901 cells assessed as necrotic cells at 800 nM after 48 hrs by Annexin V-FITC/propidium iodide staining based flow cytometric analysis (reference value: 0.052%); assay type: functional
SGC-7901 [4] = experiment: Induction of apoptosis in human SGC7901 cells assessed as viable cells at 1200 nM after 48 hrs in presence of NAC by Annexin V-FITC/propidium iodide staining based flow cytometric analysis (reference value: 96%); assay type: functional; conditions: SGC-7901, 48 h, read-out: Activity
SGC-7901 [5] = experiment: Induction of apoptosis in human SGC7901 cells assessed as decrease in PARP level at 600 to 1200 nM after 48 hrs by Western blot analysis; assay type: functional, cell-based
SGC-7901 [6] = experiment: Induction of apoptosis in human SGC7901 cells assessed as increase in Bax to Bcl-2 ratio level at 600 to 1200 nM after 48 hrs by Western blot analysis; assay type: functional, cell-based
SGC-7901 [7] = experiment: Induction of mitochondrial membrane depolarization in human SGC7901 cells assessed as cells with intact mitochondrial membrane potential at 1000 nM after 48 hrs in presence of NAC by JC-1 staining based flow cytometric analysis (reference value: 98%); assay type: functional
SGC-7901 [8] = experiment: Cell cycle arrest in human SGC7901 cells assessed as accumulation at G2 phase at 800 nM after 48 hrs by propidium iodide staining based flow cytometric analysis (reference value: 18.77%); assay type: functional
SGC-7901 [9] = experiment: Induction of apoptosis in human SGC7901 cells assessed as necrotic cells at 1000 nM after 48 hrs by Annexin V-FITC/propidium iodide staining based flow cytometric analysis (reference value: 0.052 to 0.304%); assay type: functional
SGC-7901 [10] = experiment: Induction of apoptosis in human SGC7901 cells assessed as necrotic cells at 1200 nM after 48 hrs in presence of NAC by Annexin V-FITC/propidium iodide staining based flow cytometric analysis (reference value: 0.304%); assay type: functional
SGC-7901 [11] = experiment: Induction of apoptosis in human SGC7901 cells assessed as necrotic cells at 1000 nM after 48 hrs in presence of NAC by Annexin V-FITC/propidium iodide staining based flow cytometric analysis (reference value: 0.304%); assay type: functional
MGC-803 = experiment: Antiproliferative activity against human MGC803 cells after 48 hrs by MTT assay; assay type: functional, cell-based; conditions: MGC-803, 48 h
SGC-7901 [12] = experiment: Cell cycle arrest in human SGC7901 cells assessed as accumulation at G1 phase at 1200 nM after 48 hrs by propidium iodide staining based flow cytometric analysis (reference value: 47.93%); assay type: functional
SGC-7901 [13] = experiment: Induction of apoptosis in human SGC7901 cells assessed as late apoptotic cells at 1200 nM after 48 hrs by Annexin V-FITC/propidium iodide staining based flow cytometric analysis (reference value: 1.73 to 2.85%); assay type: functional
SGC-7901 [14] = experiment: Induction of apoptosis in human SGC7901 cells assessed as viable cells at 800 nM after 48 hrs by Annexin V-FITC/propidium iodide staining based flow cytometric analysis (reference value: 95.9%); assay type: functional; conditions: SGC-7901, 48 h, read-out: Activity
SGC-7901 [15] = experiment: Induction of mitochondrial membrane depolarization in human SGC7901 cells assessed as cells with intact mitochondrial membrane potential at 1200 nM after 48 hrs by JC-1 staining based flow cytometric analysis (reference value: 87.3 to 98%); assay type: functional
SGC-7901 [16] = experiment: Induction of apoptosis in human SGC7901 cells assessed as late apoptotic cells at 800 nM after 48 hrs by Annexin V-FITC/propidium iodide staining based flow cytometric analysis (reference value: 1.73%); assay type: functional
[17] = target: T1, Thioredoxin reductase (Homo sapiens) (UniProt Q16881+Q9NNW7+Q86VQ6); experiment: Inhibition of TrxR in human SGC7901 cells assessed as induction of intracellular ROS generation at 800 to 1000 nM after 5 hrs in presence of NAC by DCFH-DA staining based flow cytometric analysis; assay type: cell-based
U-87 MG = experiment: Antiproliferative activity against human U87 cells after 48 hrs by MTT assay; assay type: functional, cell-based, U-87MG ATCC
SGC-7901 [18] = experiment: Induction of mitochondrial membrane depolarization in human SGC7901 cells assessed as cells with intact mitochondrial membrane potential at 800 nM after 48 hrs by JC-1 staining based flow cytometric analysis (reference value: 87.3%); assay type: functional
SGC-7901 [19] = experiment: Cell cycle arrest in human SGC7901 cells assessed as accumulation at S phase at 1000 nM after 48 hrs by propidium iodide staining based flow cytometric analysis (reference value: 33.30%); assay type: functional
SGC-7901 [20] = experiment: Induction of mitochondrial membrane depolarization in human SGC7901 cells assessed as cells with mitochondrial membrane potential loss at 1000 nM after 48 hrs in presence of NAC by JC-1 staining based flow cytometric analysis (reference value: 1.65%); assay type: functional
SGC-7901 [21] = experiment: Induction of apoptosis in human SGC7901 cells assessed as early apoptotic cells at 800 nM after 48 hrs by Annexin V-FITC/propidium iodide staining based flow cytometric analysis (reference value: 2.30%); assay type: functional
SGC-7901 [22] = experiment: Antiproliferative activity against human SGC7901 cells after 48 hrs by MTT assay; assay type: functional, cell-based; conditions: SGC-7901, 48 h
SGC-7901 [23] = experiment: Induction of mitochondrial membrane depolarization in human SGC7901 cells assessed as cells with mitochondrial membrane potential loss at 1000 nM after 48 hrs by JC-1 staining based flow cytometric analysis (reference value: 9.29%); assay type: functional
[24] = target: T1, Thioredoxin reductase (Homo sapiens); experiment: Inhibition of TrxR in human SGC7901 cells assessed as JNK phosphorylation at 1200 nM after 48 hrs in presence of NAC by Western blot analysis; assay type: cell-based
[25] = target: T1, Thioredoxin reductase (Homo sapiens); experiment: Inhibition of TrxR in human SGC7901 cells assessed as p38 phosphorylation at 600 to 1200 nM after 48 hrs by Western blot analysis; assay type: cell-based
SGC-7901 [26] = experiment: Induction of apoptosis in human SGC7901 cells after 48 hrs by Annexin V-FITC/propidium iodide staining based flow cytometric analysis; assay type: functional, cell-based
SGC-7901 [27] = experiment: Induction of apoptosis in human SGC7901 cells assessed as early apoptotic cells at 1000 nM after 48 hrs by Annexin V-FITC/propidium iodide staining based flow cytometric analysis (reference value: 0.851 to 2.30%); assay type: functional
[28] = target: T1, Thioredoxin reductase (Homo sapiens); experiment: Inhibition of TrxR in human SGC7901 cells assessed as JNK phosphorylation at 600 to 1200 nM after 48 hrs by Western blot analysis; assay type: cell-based
SGC-7901 [29] = experiment: Induction of apoptosis in human SGC7901 cells assessed as necrotic cells at 1200 nM after 48 hrs by Annexin V-FITC/propidium iodide staining based flow cytometric analysis (reference value: 0.052 to 0.304%); assay type: functional
[30] = target: T1, Thioredoxin reductase (Homo sapiens); experiment: Inhibition of TrxR in human SGC7901 cells assessed as p38 phosphorylation at 1200 nM after 48 hrs in presence of NAC by Western blot analysis; assay type: cell-based

T1 sequence (Q16881 whole entry, looked up): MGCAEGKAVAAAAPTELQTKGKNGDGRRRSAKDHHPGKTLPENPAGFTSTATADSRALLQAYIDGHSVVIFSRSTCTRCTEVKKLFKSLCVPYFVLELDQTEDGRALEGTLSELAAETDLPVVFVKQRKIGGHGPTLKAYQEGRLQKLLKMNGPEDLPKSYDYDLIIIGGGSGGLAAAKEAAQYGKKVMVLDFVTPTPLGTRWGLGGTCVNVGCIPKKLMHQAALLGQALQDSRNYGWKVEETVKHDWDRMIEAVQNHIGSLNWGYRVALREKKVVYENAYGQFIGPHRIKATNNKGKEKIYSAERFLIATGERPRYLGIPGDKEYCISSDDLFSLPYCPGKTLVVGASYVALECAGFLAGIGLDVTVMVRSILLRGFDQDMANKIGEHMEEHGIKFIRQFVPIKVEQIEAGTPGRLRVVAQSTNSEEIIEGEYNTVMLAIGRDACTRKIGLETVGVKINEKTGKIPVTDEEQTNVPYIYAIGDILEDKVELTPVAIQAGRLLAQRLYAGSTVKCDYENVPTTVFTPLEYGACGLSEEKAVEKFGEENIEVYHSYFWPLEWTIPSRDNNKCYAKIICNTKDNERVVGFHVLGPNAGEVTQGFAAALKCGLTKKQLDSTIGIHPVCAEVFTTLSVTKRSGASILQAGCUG
T1 sequence (Q86VQ6 whole entry, looked up): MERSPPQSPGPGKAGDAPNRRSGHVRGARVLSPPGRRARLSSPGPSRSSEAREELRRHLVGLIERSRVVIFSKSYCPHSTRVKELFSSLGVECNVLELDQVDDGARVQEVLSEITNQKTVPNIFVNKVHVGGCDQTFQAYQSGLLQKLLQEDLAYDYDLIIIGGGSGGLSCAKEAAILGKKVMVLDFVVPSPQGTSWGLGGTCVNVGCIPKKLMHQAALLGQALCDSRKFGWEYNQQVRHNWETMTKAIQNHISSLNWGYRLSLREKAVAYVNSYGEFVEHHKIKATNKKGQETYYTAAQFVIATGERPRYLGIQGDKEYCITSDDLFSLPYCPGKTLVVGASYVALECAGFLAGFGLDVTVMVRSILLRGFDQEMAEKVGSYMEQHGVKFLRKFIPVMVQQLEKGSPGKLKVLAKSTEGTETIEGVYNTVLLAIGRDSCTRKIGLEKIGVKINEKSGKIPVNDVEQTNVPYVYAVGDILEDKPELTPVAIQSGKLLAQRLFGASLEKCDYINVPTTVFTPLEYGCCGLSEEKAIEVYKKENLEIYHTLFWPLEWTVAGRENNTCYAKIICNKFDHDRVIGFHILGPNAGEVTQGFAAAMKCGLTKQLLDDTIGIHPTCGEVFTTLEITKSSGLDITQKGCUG
T1 sequence (Q9NNW7 whole entry, looked up): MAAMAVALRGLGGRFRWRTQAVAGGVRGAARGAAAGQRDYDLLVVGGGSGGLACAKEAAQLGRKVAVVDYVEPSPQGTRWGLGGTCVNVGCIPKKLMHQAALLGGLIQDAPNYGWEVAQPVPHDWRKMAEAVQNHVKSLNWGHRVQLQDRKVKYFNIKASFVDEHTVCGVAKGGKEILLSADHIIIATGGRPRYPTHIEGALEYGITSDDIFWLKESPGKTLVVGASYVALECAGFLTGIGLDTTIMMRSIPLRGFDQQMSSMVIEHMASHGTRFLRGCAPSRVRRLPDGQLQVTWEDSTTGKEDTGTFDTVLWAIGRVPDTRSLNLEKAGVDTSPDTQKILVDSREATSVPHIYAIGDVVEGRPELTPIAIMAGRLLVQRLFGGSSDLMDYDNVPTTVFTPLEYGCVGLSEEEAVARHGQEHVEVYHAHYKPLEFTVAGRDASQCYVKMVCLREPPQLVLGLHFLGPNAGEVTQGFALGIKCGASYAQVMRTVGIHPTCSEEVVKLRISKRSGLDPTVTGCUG

pIC50 (MGC-803): 6.25
inhibition [17]: inactive
pIC50 (U-87 MG): 5.41
pIC50 (SGC-7901 [22]): 5.97
inhibition [24]: inactive
inhibition [25]: Active
inhibition [28]: Active
inhibition [30]: inactive
Compound: COc1cc(OC)c2c(=O)c(OCCCOc3ccccc3/C=C/C(=O)/C=C/c3ccccn3)c(-c3cc(OC)c(OC)c(OC)c3)oc2c1
Activity (SGC-7901 [1]): 35.47%
Activity (SGC-7901 [2]): 29.8 - 55.2%
Activity (SGC-7901 [3]): 0.425%
viability at 1.2 µM (SGC-7901 [4]): 74.1%
Activity (SGC-7901 [5]): Active
Activity (SGC-7901 [6]): Active
Activity (SGC-7901 [7]): 97.3%
Activity (SGC-7901 [8]): 13.48%
Activity (SGC-7901 [9]): 0.256 - 1.04%
Activity (SGC-7901 [10]): 0.225%
Activity (SGC-7901 [11]): 0.92%
Activity (SGC-7901 [12]): 45.78%
Activity (SGC-7901 [13]): 20.1 - 24.9%
viability at 0.8 µM (SGC-7901 [14]): 66.8%
Activity (SGC-7901 [15]): 35.4 - 40.2%
Activity (SGC-7901 [16]): 8.3%
Activity (SGC-7901 [18]): 75.7%
Activity (SGC-7901 [19]): 33.28%
Activity (SGC-7901 [20]): 2.32%
Activity (SGC-7901 [21]): 24.5%
Activity (SGC-7901 [23]): 39.9%
Activity (SGC-7901 [26]): Dose-dependent effect
Activity (SGC-7901 [27]): 24.7 - 32.2%
Activity (SGC-7901 [29]): 0.131 - 1.62%
